Each block holds one molecule with its values, some of them ahead of it.
Experiments:
Rattus norvegicus = organism: Rattus norvegicus; test: Selectivity index, ratio of IC50 for ALR1 in Wistar rat kidney to IC50 for ALR2 in Wistar rat eye lens
[1] = tested on: CCOC(=O)N1CCc2c(c3cc(OC)ccc3n2CC(=O)O)C1; test: Inhibition of recombinant human AKR1B1 assessed as Km for D,L-glyceraldehyde substrate at 80 nM (reference value: 0.065+/- 0.003 […])
[2] = tested on: CCOC(=O)N1CCc2c(c3cc(OC)ccc3n2CC(=O)O)C1; test: Inhibition of recombinant human AKR1B1 assessed as Km for D,L-glyceraldehyde substrate at 120 nM (reference value: 0.065+/- 0.003 […])
[3] = molecular target: Aldo-keto reductase family 1 member B1 (Rattus norvegicus) (UniProt P07943); test: Inhibition of ALR2 in Wistar rat lens assessed as reduction in glucose induced-sorbitol accumulation by measuring sorbitol level at 0.1 uM preincubated for 30 mins followed by glucose addition measured after 3 hrs by resazurin dye based fluorescence assay (reference value: 803.6 +/- 104.6 nmol/g)
[4] = molecular target: Aldo-keto reductase family 1 member B1 (Rattus norvegicus) (UniProt P07943); test: Inhibition of ALR2 in Wistar rat lens assessed as reduction in glucose induced-sorbitol accumulation by measuring sorbitol level at 1 uM preincubated for 30 mins followed by glucose addition measured after 3 hrs by resazurin dye based fluorescence assay (reference value: 803.6 +/- 104.6 nmol/g)
[5] = molecular target: Aldo-keto reductase family 1 member B1 (Rattus norvegicus) (UniProt P07943); test: Inhibition of ALR2 in Wistar rat lens assessed as reduction in glucose induced-sorbitol accumulation by measuring sorbitol level at 100 uM preincubated for 30 mins followed by glucose addition measured after 3 hrs by resazurin dye based fluorescence assay (reference value: 803.6 +/- 104.6 nmol/g)
[6] = molecular target: Aldo-keto reductase family 1 member B1 (Rattus norvegicus) (UniProt P07943); test: Inhibition of ALR2 in Wistar rat lens assessed as reduction in glucose induced-sorbitol accumulation by measuring sorbitol level preincubated for 30 mins followed by glucose addition measured after 3 hrs by resazurin dye based fluorescence assay

- Ratio IC50 (Rattus norvegicus): 35
Molecule: Cc1c(C=O)c2ccccc2n1CC(=O)O

- Ratio IC50 (Rattus norvegicus): 66
Molecule: CC(=O)c1c(C)n(CC(=O)O)c2ccccc12

Molecule: Aldo-keto reductase family 1 member B1 (Homo sapiens) (from UniProt P15121)
- Km [1]: 36 µM
- Km [2]: 22 µM

- Ratio IC50 (Rattus norvegicus): 792
- Activity [3]: 657 nmol/g
- Activity [4]: 440 nmol/g
- Activity [5]: 249 nmol/g
- inhibition [6]: Dose-dependent effect
Molecule: CCOC(=O)N1CCc2c(c3cc(OC)ccc3n2CC(=O)O)C1

- Ratio IC50 (Rattus norvegicus): 381
Molecule: CCOC(=O)N1CCc2c(c3cc(C(=O)O)ccc3n2CC(=O)O)C1

- Ratio IC50 (Rattus norvegicus): 131
Molecule: O=C(O)Cn1c2c(c3ccccc31)CN(C(=O)C1CC1)CC2

- Ratio IC50 (Rattus norvegicus): 1070
- Activity [3]: 756 nmol/g
- Activity [4]: 631 nmol/g
- Activity [5]: 184 nmol/g
- inhibition [6]: Dose-dependent effect
Molecule: CC(=O)N1CCc2c(c3ccccc3n2CC(=O)O)C1
